Values quoted from earlier work as cited in patent US6638431B2, “Formulation and method for treating wetted surface elements in climate control systems” (Mainstream Engineering Corporation, priority 2001, dated 2003).

Test system: Legionella pneumophilia

[Ag] [Ag, silver]
concentration in water effective against Legionella pneumophilia: about 0.02 ppm
